Where “and” joins values, the source holds several entries; their conditions need not be identical. Equal values may be shown once.
Key:
[1] = target: T1, ZF-EGFP fusion protein with the HEIP, AEVK, WEIS, or WT ZF degron (Homo sapiens, UniProt Q9UKT9, N149E/Q147A/Q150V/S154K); assay: Western blot for ZF-EGFP fusion protein; type: cell-based; conditions: transduced Jurkat, 18 h
T1 construct: The degron spans residues 130–189 of IKZF3; expressed in transfected cells; host or cells: Jurkat, lentivirally transduced, presorted mCherry+

[2] = target: T2, ZF-EGFP fusion protein with the HEIP, AEVK, WEIS, or WT ZF degron (Homo sapiens, UniProt Q9UKT9, N149E/Q147H/Q150I/S154P); assay: Western blot for ZF-EGFP fusion protein; type: cell-based; conditions: transduced Jurkat, 18 h
T2 construct: The degron spans residues 130–189 of IKZF3; expressed in transfected cells; host or cells: Jurkat, lentivirally transduced, presorted mCherry+

[3] = target: APIS mutant ZF degron fused to EGFP (Homo sapiens, UniProt Q96SW2+Q9UKT9, N149P/Q147A/Q150I); assay: Ratiometric EGFP:mCherry flow cytometry degradation assay, 18 h
Chain of APIS mutant ZF degron fused to EGFP (Q9UKT9 130-189 Q147A/N149P/Q150I): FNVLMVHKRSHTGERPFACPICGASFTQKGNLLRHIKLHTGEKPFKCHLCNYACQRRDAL
Chain of APIS mutant ZF degron fused to EGFP (Q96SW2 whole entry, the tested form may be a part): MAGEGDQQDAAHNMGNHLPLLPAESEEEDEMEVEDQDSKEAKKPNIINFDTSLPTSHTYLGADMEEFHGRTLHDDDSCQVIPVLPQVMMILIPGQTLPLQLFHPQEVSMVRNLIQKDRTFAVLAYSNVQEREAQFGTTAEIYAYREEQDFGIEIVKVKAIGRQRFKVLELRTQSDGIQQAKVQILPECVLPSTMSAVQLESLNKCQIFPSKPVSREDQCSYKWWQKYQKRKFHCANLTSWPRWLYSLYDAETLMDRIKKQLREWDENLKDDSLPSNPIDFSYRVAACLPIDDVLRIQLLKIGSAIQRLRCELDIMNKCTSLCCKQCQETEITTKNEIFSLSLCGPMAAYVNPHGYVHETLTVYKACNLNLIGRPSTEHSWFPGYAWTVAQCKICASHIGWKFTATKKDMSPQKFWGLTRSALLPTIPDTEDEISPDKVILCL
Chain of APIS mutant ZF degron fused to EGFP (Q16531 whole entry partner, the tested form may be a part): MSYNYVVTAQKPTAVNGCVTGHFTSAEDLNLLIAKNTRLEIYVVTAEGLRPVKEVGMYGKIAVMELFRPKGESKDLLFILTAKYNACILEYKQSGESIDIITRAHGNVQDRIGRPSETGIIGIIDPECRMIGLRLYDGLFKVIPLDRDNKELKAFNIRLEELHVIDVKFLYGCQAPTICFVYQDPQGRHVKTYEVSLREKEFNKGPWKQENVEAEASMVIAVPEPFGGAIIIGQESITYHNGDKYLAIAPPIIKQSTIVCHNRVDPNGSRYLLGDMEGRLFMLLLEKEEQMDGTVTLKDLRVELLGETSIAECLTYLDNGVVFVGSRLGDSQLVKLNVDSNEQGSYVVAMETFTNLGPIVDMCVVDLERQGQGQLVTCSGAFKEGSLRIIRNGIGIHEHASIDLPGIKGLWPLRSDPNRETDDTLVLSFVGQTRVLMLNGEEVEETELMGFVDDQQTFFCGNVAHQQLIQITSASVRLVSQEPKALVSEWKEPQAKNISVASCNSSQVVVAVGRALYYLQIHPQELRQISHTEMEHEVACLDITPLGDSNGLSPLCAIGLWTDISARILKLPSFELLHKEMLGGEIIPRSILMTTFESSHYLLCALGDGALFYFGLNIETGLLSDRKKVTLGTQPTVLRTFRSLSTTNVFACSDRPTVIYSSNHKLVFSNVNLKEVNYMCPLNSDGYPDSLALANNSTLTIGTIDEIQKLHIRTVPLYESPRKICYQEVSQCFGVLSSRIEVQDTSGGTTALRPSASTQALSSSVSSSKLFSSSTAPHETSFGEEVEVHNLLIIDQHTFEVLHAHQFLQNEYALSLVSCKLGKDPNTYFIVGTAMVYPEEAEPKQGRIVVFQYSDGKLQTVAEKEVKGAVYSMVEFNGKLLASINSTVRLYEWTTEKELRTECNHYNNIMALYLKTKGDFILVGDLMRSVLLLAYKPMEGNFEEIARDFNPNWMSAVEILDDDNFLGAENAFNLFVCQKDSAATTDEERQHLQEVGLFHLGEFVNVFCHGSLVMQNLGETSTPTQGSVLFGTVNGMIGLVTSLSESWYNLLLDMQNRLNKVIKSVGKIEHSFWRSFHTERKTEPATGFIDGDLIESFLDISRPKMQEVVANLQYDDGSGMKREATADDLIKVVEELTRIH

[4] = target: HEIP mutant ZF degron fused to EGFP (Homo sapiens, UniProt Q96SW2+Q9UKT9, N149E/Q147H/Q150I/S154P); assay: as above
Chain of HEIP mutant ZF degron fused to EGFP (Q9UKT9 130-189 Q147H/N149E/Q150I/S154P): as the sequence (Q9UKT9 130-189 Q147A/N149P/Q150I) above, with A18H, P20E, S25P counted along it
Chain of HEIP mutant ZF degron fused to EGFP (Q96SW2 whole entry, the tested form may be a part): as the sequence (Q96SW2 whole entry, the tested form may be a part) above
Chain of HEIP mutant ZF degron fused to EGFP (Q16531 whole entry partner, the tested form may be a part): as the sequence (Q16531 whole entry partner, the tested form may be a part) above

[5] = target: T3, ZF-EGFP fusion protein with the HEIP, AEVK, WEIS, or WT ZF degron (Homo sapiens, UniProt Q9UKT9, N149E/Q147W/Q150I); assay: Western blot for ZF-EGFP fusion protein; type: cell-based; conditions: transduced Jurkat, 18 h
T3 construct: The degron spans residues 130–189 of IKZF3; expressed in transfected cells; host or cells: Jurkat, lentivirally transduced, presorted mCherry+

[6] = target: T4, WEIS-EGFP degron in Jurkat cells (Homo sapiens, UniProt Q96SW2+Q9UKT9, N149E/Q147W/Q150I); assay: GFP degradation flow cytometry assay with proteasome inhibitor carfilzomib; type: cell-based; conditions: carfilzomib (1 μM) pre-incubation; 1-24 h
T4 construct: pLVX-Sprout-IKZF3 130-189aa Q147W N149E Q150I (WEIS); expressed in transfected cells

[7] = target: T5, TRIM28 with C-terminal WEIS degron tag and HiBit tag (Homo sapiens, UniProt Q96SW2+Q9UKT9, N149E/Q147W/Q150I); assay: HiBiT luminescence degradation assay; type: cell-based; conditions: Jurkat, 24 h
T5 construct: pLVX-Sprout-IKZF3 130-189aa Q147W N149E Q150I (WEIS); TRIM28 (fusion partner / protein of interest, gene TRIM28, human entry Q13263 by my knowledge); expressed in transfected cells; host or cells: Jurkat, lentiviral transduction; endogenous TRIM28 knocked out by CRISPR
T5 sequence (Q9UKT9 130-189 Q147W/N149E/Q150I): as the sequence (Q9UKT9 130-189 Q147A/N149P/Q150I) above, with A18W, P20E counted along it
T5 sequence (Q96SW2 whole entry, the tested form may be a part): as the sequence (Q96SW2 whole entry, the tested form may be a part) above

[8] = tested on: Jurkat cells (TRIM28-transduced and untransduced); assay: CellTiter-Glo cell viability assay; type: cell-based, human; conditions: 100 pM – 10 μM, 24 h
Method: Figure S22. CellTiter-Glo assay to assess cell viability of Jurkat cells lentivirally transduced with TRIM28 with either N-terminal or C-terminal WEIS degron tag (or untagged control) and HiBit peptide tag, then incubated (alongside untransduced Jurkat cells) with a concentration curve of […]
(1 picture or pasted object on this page, not shown here) […]
mixed with the Cas9 RNPs and then electroporated using a 4D-Nucleofector (Lonza) on pulse code CL-120. Estimation of knockout efficiency was performed by PCR amplification of the sgRNA target site using primers described in ‘PCR primers for amplifying sgRNA target site’ below. PCR products were Sanger sequenced and editing efficiency was assessed using the online […]
HiBit and CellTiter-Glo® (CTG) Assays […]
spanning 169 pM–10 μM (final assay concentration). […]
HiBit signal was measured by adding 25 µL of the lytic detection reagent from the Nano-Glo® HiBiT Extracellular Detection System (Promega), prepared as per manufacturer protocol. […] Both assays were read using PHERAstar microplate luminescence reader (BMG Labtech). The data have been expressed as % of DMSO control and represent three independent biological replicates. […]
signal was measured by adding 40 µL of the Nano-Glo lytic detection reagent (Promega),

HA-NanoLuc-WEIS = target: T6, HA-NanoLuc-WEIS (Homo sapiens, UniProt Q96SW2+Q9UKT9, N149E/Q147W/Q150I); assay: HA antibody immunoblotting in HEK293T cells; type: cell-based; conditions: 18 h, Western blot
T6 construct: pLVX-Sprout-IKZF3 130-189aa Q147W N149E Q150I (WEIS); expressed in transfected cells; host or cells: HEK293T, lentiviral transduction, puromycin-selected

HA-CDK9-WEIS = target: T7, HA-CDK9-WEIS (Homo sapiens, UniProt Q96SW2+Q9UKT9, N149E/Q147W/Q150I); assay: HA antibody immunoblotting in HEK293T cells; type: cell-based; conditions: 18 h, Western blot
T7 construct: IKZF3 130aa-142aa 170-189aa fused to EGFP; CDK9 (protein of interest, fusion partner N-terminal of the degron); expressed in transfected cells; host or cells: HEK293T, lentivirally transduced (Cilantro2-derived plasmid, Addgene #74450, EGFP replaced by HA-POI-WEIS)
T7 sequence (Q9UKT9 130-189 Q147W/N149E/Q150I): as the sequence (Q9UKT9 130-189 Q147A/N149P/Q150I) above, with A18W, P20E counted along it
T7 sequence (Q96SW2 whole entry, the tested form may be a part): as the sequence (Q96SW2 whole entry, the tested form may be a part) above

SMILES | degradation of EGFP tagged with AEVK degron (Western blot) [1] | degradation of EGFP tagged with HEIP degron (Western blot) [2] | DC50 ([3]; APIS, Jurkat, 18 h) [nM] | pDC50 ([3]; APIS, Jurkat, 18 h) | Selectivity (WT/mutant) ([3]; DC50(WT)/DC50(APIS)) | Selectivity (WT/mutant) ([4]; DC50(WT)/DC50(HEIP)) | DC50 ([4]; HEIP, Jurkat, 18 h) [nM] | pDC50 ([4]; HEIP, Jurkat, 18 h) | degradation of EGFP tagged with WEIS degron (Western blot) [5] | WEIS-EGFP degradation with carfilzomib [6] | DC50 [7] [nM] | D max ([7]; with 10 μM) [%] | cell viability [8] | D max (HA-NanoLuc-WEIS) [%] | DC50 (HA-NanoLuc-WEIS) [nM] | D max (HA-CDK9-WEIS) [%] | DC50 (HA-CDK9-WEIS) [nM]
CC(C)(C)c1ccc2c(c1)C(=O)N(C1CCC(=O)NC1=O)C2=O (centres unmarked) [Compound 19] | complete degradation | complete degradation | 74.1 | 7.13 | 10.2 and 10 | 25 and 25.1 | 30.2 | 7.52 | – | – | – | – | – | – | – | – | –
CN1CCN(c2ccc3c(c2)C(=O)N(C2CCC(=O)NC2=O)C3=O)CC1 (centres unmarked) [Compound 23] | – | – | – | – | – | – | – | – | complete degradation | rescued | 125 | 83 | did not affect the cell viability | 89 | 47.8 | 70 | 299

Reference: article PMC12645437, “Orthogonal IMiD-Degron Pairs Induce Selective Protein Degradation in Cells” (ACS Chemical Biology, 2025)
